Experimental data reported in US20050009837A1, “Modulators of lipid metabolism and methods of use” (City of Hope, priority 2003, published 2005).

How the values were obtained:
[1] = tested on: SRE reporter (FAS proximal promoter); experiment: SRE reporter (FAS proximal promoter-luciferase) assay in CV-1 cells; assay type: cell-based
Experimental: Since LXR regulates SREBP-1c expression, LXR also should regulate activities downstream of SREBP-1c. To test this, CV-1 cells were transiently transfected with as in Example 6, but with the SRE or the SREm reporter, SREBP-1c-dependent reporter constructs consisting of the FAS proximal promoter linked to the luciferase gene. […] See Wang et al., Mol. Cell 3:543-553, 1999, the disclosures of which are hereby incorporated by reference. Cells then were treated as in Example 6 with the indicated compounds, Clotrimazole or 25-hydroxycholesterol (25-OH cholesterol). 25-OH cholesterol is known to repress the synthesis of SREBP-1c and is therefore used to eliminate the effects of this transcription factor on the FAS promoter (SRE).

LXRα = target: T1, LXRα (Homo sapiens, UniProt Q13133); experiment: Transient transfection assay Gal-hLXRα + RXR LBD, UASGx4 TK Luc reporter, CV-1 cells; assay type: cell-based; conditions: 10 μM; for repression of LXRα activity: approximately 40 hours, lipid-stripped serum; for less effective than Clotrimazole in repressing LXRα: relative to Clotrimazole
T1 construct: expressed in transfected cells; host or cells: CV-1 cells
T1 sequence (Q13133 209-447 limits assumed): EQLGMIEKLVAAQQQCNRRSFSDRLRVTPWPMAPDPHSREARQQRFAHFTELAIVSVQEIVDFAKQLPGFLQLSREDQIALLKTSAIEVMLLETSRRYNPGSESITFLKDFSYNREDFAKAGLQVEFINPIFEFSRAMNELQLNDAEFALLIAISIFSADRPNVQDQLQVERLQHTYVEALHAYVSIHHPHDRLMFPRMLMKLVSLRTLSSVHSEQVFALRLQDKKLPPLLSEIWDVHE
T1 sequence (P19793 227-458 partner limits assumed): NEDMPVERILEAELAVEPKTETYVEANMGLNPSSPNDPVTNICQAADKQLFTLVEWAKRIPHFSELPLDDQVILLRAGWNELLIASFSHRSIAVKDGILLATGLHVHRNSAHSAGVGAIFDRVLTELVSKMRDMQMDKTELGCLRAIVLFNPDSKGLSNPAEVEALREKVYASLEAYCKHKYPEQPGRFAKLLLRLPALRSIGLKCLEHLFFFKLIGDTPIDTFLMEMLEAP
Experimental: (§1) Synthetic compounds were screened in an effort to find more specific LXR inhibitors. CV-1 cells were maintained and transfected using known methods. Forman et al., Cell 81: 687-693, 1995. CV-1 cells were transiently transfected with Gal-hLXRα, the RXR LBD, the UASGx4 TK Luc reporter and CMX-β-gal as an internal control, either in standard or in lipid-stripped serum. After transfection, cells were treated for approximately 40 hours with phenol red-free DMEM-FBS containing the indicated compounds at the following concentrations: T0901317 (100 nM), Clotrimazole (10 μM), S883417(10 μM) and S100250 (10 μM), unless otherwise specified. After exposure to ligand, the cells were harvested and assayed for luciferase and β-galactosidase activity. The luciferase activity was normalized to the internal β-galactosidase control (reporter activity).
(§2) The ability of these compounds to repress LXRα and LXRβ was compared by transfecting CV-1 cells with either the RXR LBD alone or the RXR LBD together with either Gal-LXRα or Gal-LXRβ.
(§3) Transfections were performed as described above, with increasing concentrations of Clotrimazole.

LXRβ = target: T2, LXRβ (Homo sapiens, UniProt P55055); experiment: Transient transfection assay Gal-LXRβ + RXR LBD, UASGx4 TK Luc reporter, CV-1 cells; assay type: cell-based; conditions: 10 μM; for repression of LXRβ activity: approximately 40 hours, lipid-stripped serum; for less effective than Clotrimazole in repressing LXRβ: relative to Clotrimazole
T2 construct: expressed in transfected cells; host or cells: CV-1 cells
T2 sequence (P55055 222-460 limits assumed): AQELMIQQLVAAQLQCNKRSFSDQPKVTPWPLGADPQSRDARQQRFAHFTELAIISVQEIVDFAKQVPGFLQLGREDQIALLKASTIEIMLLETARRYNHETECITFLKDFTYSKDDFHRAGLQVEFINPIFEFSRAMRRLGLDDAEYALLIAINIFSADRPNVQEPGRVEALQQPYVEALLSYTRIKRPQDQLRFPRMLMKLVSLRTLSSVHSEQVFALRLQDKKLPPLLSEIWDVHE
T2 sequence (P19793 227-458 partner limits assumed): T1 sequence (P19793 227-458 partner limits assumed)
Experimental: as §1, §2, §3

CV-1 cells = experiment: Cytotoxicity in transfected CV-1 cells; conditions: T0901317 100 nM; Clotrimazole, S883417, S100250 10 μM; approximately 40 hours
Experimental: as §1

human LXRα = target: T3, human LXRα (Homo sapiens, UniProt Q13133); experiment: Full-length hLXRα/hRXRα LXREx3 TK-Luc reporter assay in transfected CV-1 cells; assay type: cell-based; conditions: 20 μM, 40 hours
T3 construct: expressed in transfected cells; host or cells: CV-1 cells
T3 sequence (Q13133 1-447): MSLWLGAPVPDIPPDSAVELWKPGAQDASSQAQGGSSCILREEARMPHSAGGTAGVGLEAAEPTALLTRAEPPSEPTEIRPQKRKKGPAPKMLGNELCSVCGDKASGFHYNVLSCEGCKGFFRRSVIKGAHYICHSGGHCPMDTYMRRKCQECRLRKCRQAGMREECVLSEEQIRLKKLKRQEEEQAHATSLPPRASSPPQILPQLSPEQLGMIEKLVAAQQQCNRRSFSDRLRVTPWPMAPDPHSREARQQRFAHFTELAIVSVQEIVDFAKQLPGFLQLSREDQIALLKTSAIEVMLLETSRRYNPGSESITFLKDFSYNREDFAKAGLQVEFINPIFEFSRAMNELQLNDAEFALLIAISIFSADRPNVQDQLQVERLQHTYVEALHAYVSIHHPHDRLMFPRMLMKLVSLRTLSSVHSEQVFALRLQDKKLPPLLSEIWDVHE
T3 sequence (P19793 1-462 partner): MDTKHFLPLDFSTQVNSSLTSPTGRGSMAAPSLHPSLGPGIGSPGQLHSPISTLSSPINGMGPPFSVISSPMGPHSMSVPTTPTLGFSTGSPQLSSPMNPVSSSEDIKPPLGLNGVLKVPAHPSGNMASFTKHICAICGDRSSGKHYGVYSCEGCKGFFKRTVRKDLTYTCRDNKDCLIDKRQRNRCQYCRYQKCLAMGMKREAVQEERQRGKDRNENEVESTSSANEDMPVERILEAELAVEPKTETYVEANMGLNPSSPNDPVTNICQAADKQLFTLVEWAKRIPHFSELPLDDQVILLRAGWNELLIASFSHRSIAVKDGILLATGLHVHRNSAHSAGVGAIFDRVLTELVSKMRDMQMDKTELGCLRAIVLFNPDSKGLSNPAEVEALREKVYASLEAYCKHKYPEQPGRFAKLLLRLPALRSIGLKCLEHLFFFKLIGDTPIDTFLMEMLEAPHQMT
Experimental: (§4) CV-1 cells were grown in DMEM supplemented with 10% resin-charcoal stripped fetal bovine serum, 50 U/ml penicillin G and 50 μg/ml streptomycin sulfate at 37° C. in 5% CO2. Cells were plated to 50-80% confluence one day prior to transfection using phenol red-free DMEM-FBS. The cells were transfected by lipofection using N-[1-(2,3-dioleoyloxy)propyl]-N,N,N-ammonium methyl sulfate according to manufacturer's instructions (Boehringer Mannheim).
(§5) Genes encoding the following full-length proteins, which are suitable for use in the studies described herein, were cloned into pCMX: human RXRα (Gene Bank accession X52773) and human LXRα (GenBank accession U22662). The cells were transfected with CMX-βgal and luciferase constructs. The CMX-βGal construct contained the ligand binding domain of human RXR (hRXRα) and the ligand binding domain of human LXRα (hLXRα) as indicated in FIG. 1. The luciferase reporter construct (LXREx3 TK-Luc) contained the herpes virus thymidine kinase promoter (−105/+51) linked to three copies of the response element LXRE. After transfection, the cells were treated with 20 μM of a synthetic azole test compound or vehicle alone for 40 hours in phenol red-free DMEM-FBS.

[2] = target: T4, LXRα-RXR heterodimers and receptor interaction domains of coactivator SRC1 (Homo sapiens, UniProt Q13133); experiment: LXR-coactivator association, VP-L-hLXRα / L-hRXRα / GAL4-SRC1 in CV-1 cells; assay type: cell-based; conditions: 20 μM, coactivator GAL4-SRC1, CV-1 cells
T4 construct: expressed in transfected cells; host or cells: CV-1 cells
T4 sequence (Q13133 209-447 limits assumed): T1 sequence (Q13133 209-447 limits assumed)
T4 sequence (P19793 227-458 partner limits assumed): T1 sequence (P19793 227-458 partner limits assumed)
Experimental: as §4, §5
VP-L-hLXRα contains the transactivation domain of Herpes VP16, linked to the LBD of human LXRα, L-hRXRα is the LBD of human RXRα. UASGx4 TK-Luc was the reporter gene, and the assay additionally included the coactivator GAL4-SRC1. Treatment with 20 μM azole compound as indicated was able to inhibit interactions between LXRα-RXR heterodimers and the receptor interaction domains from the coactivator SRC1.

[3] = target: T5, ligand binding domain of LXRα-RXR heterodimers (Homo sapiens, UniProt Q13133); experiment: LXR ligand binding domain mediated activity, UASGx4 TK-Luc reporter in CV-1 cells; assay type: cell-based; conditions: 20 μM
T5 construct: expressed in transfected cells; host or cells: CV-1 cells
T5 sequence (Q13133 209-447 limits assumed): T1 sequence (Q13133 209-447 limits assumed)
T5 sequence (P19793 227-458 partner limits assumed): T1 sequence (P19793 227-458 partner limits assumed)
Experimental: as §4
as §5, with “DMEM-FBS. After exposure to the candidate antagonist compounds, cells were harvested and assayed for luciferase and β-galactosidase activity.” for “DMEM-FBS.”
The reporter gene was UASGx4 TK-Luc.

| repression of LXRα activity (LXRα) | less effective than Clotrimazole in repressing LXRα (LXRα) | repression of LXRβ activity (LXRβ) | less effective than Clotrimazole in repressing LXRβ (LXRβ) | inhibition of constitutive activation by the LXRα-RXR ligand binding domain (UASGx4 TK-Luc) [3] | Structure (SMILES) | LXRα induction of SRE reporter activity ([1]; LXRα co-transfected (3-fold increase)) | LXRβ induction of SRE reporter activity ([1]; LXRβ co-expression (almost 2-fold increase)) | activity of reporter containing mutated SRE ([1]; SREm reporter) | repression of SRE reporter ([1]; absence of LXR) | cytotoxicity (CV-1 cells) | antagonism of constitutive activation mediated by LXR (hLXRα activity, LXREx3 TK-Luc) (human LXRα) | inhibition of LXR-coactivator association [2] |
| --- | --- | --- | --- | --- | --- | --- | --- | --- | --- | --- | --- | --- |
|  |  |  |  |  | C[C@H](CCCC(C)(C)O)[C@H]1CC[C@H]2[C@@H]3CC=C4C[C@@H](O)CC[C@]4(C)[C@H]3CC[C@]12C [25-OH cholesterol, 25-hydroxycholesterol] | prevented this induction | prevented this induction | no significant effects | 50% |  |  |  |
| repressed | approximately 50% | repressed | approximately 50% | inhibit constitutive activation | c1ccc(-c2cncn2C(c2ccccc2)(c2ccccc2)c2ccccc2)cc1 [S100250] |  |  |  |  | No cytotoxicity | antagonize the constitutive activation mediated by LXR | inhibition of LXR-coactivator association |
| repressed | approximately 50% | repressed | approximately 50% | inhibit constitutive activation | Cl.FC(F)(F)c1cccc(C(c2ccccc2)(c2ccccc2)n2ccnc2)c1 [S883417] |  |  |  |  | No cytotoxicity | antagonize the constitutive activation mediated by LXR | inhibition of LXR-coactivator association |
